From the METLIN SMRT retention time set (Domingo-Almenara et al. 2019)

Assay: gradient 5% acetonitrile 3 min, to 50% in 2 min, to 85% in 15 min, held 3 min, 100 µL/min
Details: column: Zorbax Extend-C18 2.1 x 50 mm; eluents: water / acetonitrile, 0.1% formic acid
How it was run: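 Retention times come from adduct peaks that were picked computationally and then checked by hand. The standards, pure and pooled in mixtures of ~100 molecules, were run on a Zorbax Extend-C18 column (2.1 × 50 mm, 1.8 μm) at 100 μL/min with water and acetonitrile, each with 0.1% formic acid. Detection was by quadrupole time-of-flight mass spectrometry in positive and negative ionization mode, with a dead volume of 40 μL and a dwell volume of 900 μL.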

CCOC(=O)c1ccc(Nc2c(-c3ccc(C)cc3)nc3cnccn23)cc1
RP-LC retention time: 918 s

O=C(c1ccc(-c2cccs2)nc1)N1CCN(c2ccccn2)CC1
RP-LC retention time: 604 s

CCC(=O)N1CCc2c(C(=O)N3CCN(c4ccccc4)CC3)cccc21
RP-LC retention time: 829 s

CCN(CC)C(=O)C1CCN(S(=O)(=O)c2ccc3c(c2)NC(=O)CO3)CC1
RP-LC retention time: 680 s

COc1ccc(C(C)(C)C)cc1S(=O)(=O)Nc1ccc(-c2cn3ccc(C)nc3n2)cc1
RP-LC retention time: 758 s

CCCn1cc(CCNS(=O)(=O)c2ccc(C)c(C)c2)c2cccnc21
RP-LC retention time: 923 s

O=C(Nc1ccc2c(c1)OCO2)C1CCN(c2cc(N3CCSCC3)ncn2)CC1
RP-LC retention time: 676 s

CCCn1c(=O)sc2cc(S(=O)(=O)N3CCC(C(=O)Nc4ccc(F)cc4C)CC3)ccc21
RP-LC retention time: 974 s

CCOc1ccc2nc(NC3=NCN(Cc4cccnc4)CN3)nc(C)c2c1
RP-LC retention time: 580 s

CCc1ccc(C(=O)N2CCC3(C2)C(=O)N(C)c2ccccc23)cc1 (centres undefined)
RP-LC retention time: 861 s

O=C(NCc1ccccc1C(F)(F)F)C1CCCN(c2ncnc3c2oc2ccccc23)C1 (centres undefined)
RP-LC retention time: 861 s

CN(C)S(=O)(=O)c1ccc2c(c1)N(CC(=O)NCc1ccccc1)C(=O)C1CCCCN21 (centres undefined)
RP-LC retention time: 987 s

COc1ccccc1NC(=O)CSc1ccc(N2CCCC(C(=O)NC3CC3)C2)nn1 (centres undefined)
RP-LC retention time: 618 s

Cc1cccc(-c2nnc(-c3cccc(S(=O)(=O)N4CCCC4)c3)o2)c1
RP-LC retention time: 1050 s

COCC(=O)Nc1cc(=O)n(C)c(=O)n1C
RP-LC retention time: 552 s

CCOc1ccc(-n2c(CN3CCN(C(=O)NCCCOC)CC3)nc3cccnc32)cc1
RP-LC retention time: 609 s

CCOc1cccc(CNC(=O)c2nnc(-c3ccc(S(=O)(=O)N(C)C)cc3)o2)c1
RP-LC retention time: 893 s

COC(=O)c1ccc(-c2nc3cnccn3c2Nc2ccc(C)c(Br)c2)cc1
RP-LC retention time: 1040 s

Cc1ccc(NC(=O)Cn2cnc3nc(N4CCCC(C(=O)NC(C)C)C4)sc3c2=O)c(C)c1 (centres undefined)
RP-LC retention time: 710 s

COc1ccc(-c2cn3ccn(-c4cc(C)c(Cl)cc4OC)c(=O)c3n2)cc1
RP-LC retention time: 924 s

CN(CC(=O)O)c1nc2c(F)cccc2s1
RP-LC retention time: 689 s

C/C(O)=C(\C#N)C(=O)Nc1ccc(C(F)(F)F)cc1
RP-LC retention time: 858 s

CCOC(=O)N1CCN(C(=O)CSCC(=O)Nc2nc(-c3ccc(OC)cc3)cs2)CC1
RP-LC retention time: 841 s

COc1ccc(N2CCN(S(=O)(=O)c3cc(-c4nnc(C5CCC5)o4)co3)CC2)cc1
RP-LC retention time: 1000 s

OCC1CN(c2ccncn2)CC12CCN(Cc1c[nH]c3ccccc13)CC2 (centres undefined)
RP-LC retention time: 579 s

COCc1noc([C@@H]2CC(F)(F)CN2C(=O)c2cc(C)oc2C)n1
RP-LC retention time: 835 s

Cc1ccc(F)cc1S(=O)(=O)N1CCc2c(c(-c3nnc(-c4ccccc4F)o3)nn2C)C1
RP-LC retention time: 981 s

CN(C)c1ccc(-c2nc(-c3cn(Cc4cccc(F)c4)nn3)no2)cc1
RP-LC retention time: 1020 s

O=C(c1ccoc1)N1CCC(Cc2noc(C3CC3)n2)C1 (centres undefined)
RP-LC retention time: 695 s

O=C(Cc1ccc(F)cc1)Nc1nnc(C2CC(=O)N(c3ccccc3)C2)o1 (centres undefined)
RP-LC retention time: 716 s

COc1ccc(S(=O)(=O)N2CCN(c3cc(C)c4ccccc4n3)CC2)cc1
RP-LC retention time: 701 s

COc1ccc(NC(=O)c2cn3c(n2)COCC3)cc1Cl
RP-LC retention time: 703 s

Cc1cc2nn(CC(=O)Nc3ccc(F)cc3)c(=O)n2c(Nc2ccc(F)cc2)n1
RP-LC retention time: 972 s

O=C(CN1C(=O)C2CCCCN2C(=O)c2ccccc21)NCCN1CCCCCC1 (centres undefined)
RP-LC retention time: 590 s

CC(=O)N1CCC2(CC1)CC(CC(=O)O)CCO2 (centres undefined)
RP-LC retention time: 588 s

O=c1c2cc(-c3ccccc3)nn2ccn1Cc1noc(CN2CCCCC2)n1
RP-LC retention time: 651 s

COc1cccc(OCC(O)CN2CCN(c3ccccc3)CC2)c1 (centres undefined)
RP-LC retention time: 727 s

Cc1ccc(Cn2cc(-c3ccncc3)cc2C(=O)N(C)Cc2ccccc2)cc1
RP-LC retention time: 751 s

CCn1ccc(NC(=O)c2ccccc2)n1
RP-LC retention time: 694 s

CC1CCN(S(=O)(=O)c2ccc(-c3nnc(C(=O)NCCN4CCOCC4)o3)cc2)CC1
RP-LC retention time: 674 s

CSc1cccc(NC(=O)N2CCC(CC(=O)N3CCCCC3)CC2)c1
RP-LC retention time: 789 s

Cc1csc(-c2cc(S(=O)(=O)NCc3ccc(OC(C)C)cc3)c(C)s2)n1
RP-LC retention time: 1060 s

Cc1cc(C)cc(C(=O)N2CCCC(C(=O)NCCc3ccco3)C2)c1 (centres undefined)
RP-LC retention time: 836 s

COC(=O)c1ccccc1NC(=O)Cn1cnc2c(sc3nc(-c4ccccc4)ccc32)c1=O
RP-LC retention time: 1110 s
